The nature of series [1]: In vitro interconversion (racemization) of enantiomeric atropisomers under pseudo-physiological conditions, chiral HPLC. The method, then: The in vitro interconversion of N-[[2′-[[(4,5-dimethyl-3-isoxazolyl)amino]sulfonyl]-4-(2-oxazolyl)[1,1′-biphenyl]-2-yl]methyl]-N,3,3-trimethylbutanamide enantiomeric atropisomers was investigated using normal phase chiral HPLC with ultraviolet and laser polarimetric detection, under pseudo-physiological conditions, i.e., aqueous medium at 37° C., gastric fluid at 37° C. and human serum at 37° C.

Series [2] addresses T1, human endothelin A receptor (Homo sapiens, UniProt P25101).
T1 construct: expressed in transfected cells; host or cells: CHO-K1 (G-418 selected)
T1 sequence (P25101 21-427): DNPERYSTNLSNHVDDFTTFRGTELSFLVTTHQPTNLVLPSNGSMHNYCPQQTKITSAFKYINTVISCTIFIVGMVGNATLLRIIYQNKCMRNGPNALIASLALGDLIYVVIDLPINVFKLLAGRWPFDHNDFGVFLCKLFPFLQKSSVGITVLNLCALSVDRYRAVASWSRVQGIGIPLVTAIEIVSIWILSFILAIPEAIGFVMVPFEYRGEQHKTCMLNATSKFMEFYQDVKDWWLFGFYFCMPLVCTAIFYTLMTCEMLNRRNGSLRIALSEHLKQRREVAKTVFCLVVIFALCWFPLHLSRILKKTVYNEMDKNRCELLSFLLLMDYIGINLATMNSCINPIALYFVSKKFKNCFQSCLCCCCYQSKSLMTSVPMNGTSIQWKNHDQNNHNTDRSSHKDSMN
Kind of series: In vitro ETA binding, attached cell assay, [125I]-ET-1 competition. The method, then: The isolated atropisomers of Example 2 were tested for in vitro ETA binding according to the following procedure:
CHO-K1 cells expressing the human endothelin A receptor were cultured in Ham's F12 media (Gibco/BRL, Grand Island, N.Y.) with 10% fetal bovine serum (Hyclone), supplemented with 300 μg/mL Geneticin (G-418 Gibco BRL Products, Grand Island, N.Y.) and maintained at 37° C. with 5% CO2 in a humidified incubator. Forty eight hours prior to assay, the cells were treated with 0.25% trypsin-EDTA and were seeded in Falcon, 96 well tissue culture plates at a density of 1.5×10^4 cells/well (the monolayer should reach 80-90% confluency by the day of assay).
In the attached cell assay, culture media was aspirated from each well and the monolayers were washed with 75 μl of room temperature PBS (Mg^++, Ca^++ free). After the addition of 75 μl of cold binding buffer to each well, the plate was chilled at 4° C. for 3 minutes before the addition of competing drugs and isotope. The binding assay was performed in a total volume of 125 μl consisting of assay buffer, maintained at 4° C. (50 mM Tris, pH 7.4, including 1% BSA, and 2 μM phosphoramidon), and 25 μl of either 500 nM ET-1 (to define nonspecific binding) or competing drugs. The reaction was initiated with the addition of 25 μl of 0.25 nM [^125I]-ET-1 (New England Nuclear). Incubation was carried out with gentle orbital shaking, at 4° C., reaching equilibrium at 4 hours. The reaction was terminated by aspiration of the reaction buffer and two subsequent washes with room temperature PBS (Mg^++, Ca^++ free). The cells were dissociated by the addition of 100 μl of 0.5N NaOH followed by incubation for 40 minutes. Samples were then transferred from the 96 well format into tubes for counting in a Cobra gamma counter (Packard). Data was analyzed with curve fitting software by Sigma plot.
In each assay run that was performed, one sample of each atropisomer as well as one sample of racemate was tested for activity.

Where [3] appears, read: Table 1, 97% pure atropisomers of Example 2, Run 1, CHO-K1 cells expressing human ETA, 4° C., read-out: IC50 (nM) Run 1.
[4] abbreviates: Table 1, 97% pure atropisomers of Example 2, Run 2, read-out: IC50 (nM) Run 2.
Where [5] appears, read: Table 1, 97% pure atropisomers of Example 2, Run 3, read-out: IC50 (nM) Run 3.
[6] abbreviates: Table 1, 97% pure atropisomers of Example 2, Run 4, read-out: IC50 (nM) Run 4.
[7] abbreviates: Table 2, 99.2% pure atropisomers of Example 2, Run 1, read-out: IC50 (nM) Run 1.
Setting [8] is: Table 2, 99.2% pure atropisomers of Example 2, Run 2, read-out: IC50 (nM) Run 2.
The mark [9] stands for this setting: Table 2, 99.2% pure atropisomers of Example 2, Run 3, read-out: IC50 (nM) Run 3.
[10] abbreviates: Table 2, 99.2% pure atropisomers of Example 2, Run 4, read-out: IC50 (nM) Run 4.
[11] abbreviates: Table 2, 99.2% pure atropisomers of Example 2, Run 5, read-out: IC50 (nM) Run 5.
The mark [12] stands for this setting: Table 2, 99.2% pure atropisomers of Example 2, Run 6, read-out: IC50 (nM) Run 6.
The mark [13] stands for this setting: Table 2, 99.2% pure atropisomers of Example 2, Run 7, read-out: IC50 (nM) Run 7.
[14] abbreviates: Table 2, 99.2% pure atropisomers of Example 2, Run 8, read-out: IC50 (nM) Run 8.
The mark [15] stands for this setting: Table 2, 99.2% pure atropisomers of Example 2, Run 9, read-out: IC50 (nM) Run 9.

Where two headings read alike, the source gives them in different places.

For the compound `Cc1onc(NS(=O)(=O)c2ccccc2-c2ccc(-c3ncco3)cc2CN(C)C(=O)CC(C)(C)C)c1C` (racemic) [Racemate, N-[[2′-[[(4,5-dimethyl-3-isoxazolyl)amino]sulfonyl]-4-(2-oxazolyl)[1,1′-biphenyl]-2-yl]methyl]-N,3,3-trimethylbutanamide], the results for the half-life in series [1] and in series [1] (buffer) were 15.8 h and about 15 h, respectively. The half-inhibitory concentration (IC50) in series [2] (IC50 (nM) Run 1, Table 1, 97% pure atropisomers of Example 2, Run 1, CHO-K1 cells expressing human ETA, 4° C.) was determined as 0.12 nM; in series [2] (IC50 (nM) Run 1, Table 2, 99.2% pure atropisomers of Example 2, Run 1), 0.018 nM; in series [2] (IC50 (nM) Run 2, Table 1, 97% pure atropisomers of Example 2, Run 2), 0.24 nM; in series [2] (IC50 (nM) Run 2, Table 2, 99.2% pure atropisomers of Example 2, Run 2), 0.08 nM; in series [2] (IC50 (nM) Run 3, Table 1, 97% pure atropisomers of Example 2, Run 3), 0.21 nM; in series [2] (IC50 (nM) Run 3, Table 2, 99.2% pure atropisomers of Example 2, Run 3) it was 0.4 nM. Further, the IC50 in series [2] (IC50 (nM) Run 4, Table 1, 97% pure atropisomers of Example 2, Run 4) was 0.1 nM; in series [2] (IC50 (nM) Run 4, Table 2, 99.2% pure atropisomers of Example 2, Run 4), 0.3 nM; in series [2] (IC50 (nM) Run 5, Table 2, 99.2% pure atropisomers of Example 2, Run 5) it was 0.2 nM; in series [2] (IC50 (nM) Run 6, Table 2, 99.2% pure atropisomers of Example 2, Run 6), 0.4 nM; in series [2] (IC50 (nM) Run 7, Table 2, 99.2% pure atropisomers of Example 2, Run 7), 0.24 nM; in series [2] (IC50 (nM) Run 8, Table 2, 99.2% pure atropisomers of Example 2, Run 8), 0.16 nM. In addition, the IC50 in series [2] (IC50 (nM) Run 9, Table 2, 99.2% pure atropisomers of Example 2, Run 9) came to 0.27 nM.

Consider `Cc1onc(NS(=O)(=O)c2ccccc2-c2ccc(-c3ncco3)cc2CN(C)C(=O)CC(C)(C)C)c1C` (single isomer, unassigned) [97% pure (−) levorotatory, N-[[2′-[[(4,5-dimethyl-3-isoxazolyl)amino]sulfonyl]-4-(2-oxazolyl)[1,1′-biphenyl]-2-yl]methyl]-N,3,3-trimethylbutanamide], for which the IC50 stood at 0.41 nM in series [2] (setting [3]); 0.9 nM in series [2] (setting [4]); 0.6 nM in series [2] (setting [5]); 1.4 nM in series [2] (setting [6]); 0.1 nM in series [2] (setting [7]); 0.65 nM in series [2] (setting [8]). Besides, the IC50 stood at 6 nM in series [2] (setting [9]); 5 nM in series [2] (setting [10]); 7 nM in series [2] (setting [11]); 3.7 nM in series [2] (setting [12]); 21 nM in series [2] (setting [13]); 14 nM in series [2] (setting [14]). Moreover, in series [2] (setting [15]), the concentration for half-maximal inhibition (IC50) was determined as 19 nM.

Take `Cc1onc(NS(=O)(=O)c2ccccc2-c2ccc(-c3ncco3)cc2CN(C)C(=O)CC(C)(C)C)c1C` (single isomer, unassigned) [97% pure (+) dextrorotatory, N-[[2′-[[(4,5-dimethyl-3-isoxazolyl)amino]sulfonyl]-4-(2-oxazolyl)[1,1′-biphenyl]-2-yl]methyl]-N,3,3-trimethylbutanamide]: the concentration for half-maximal inhibition (IC50) is 0.03 nM in series [2] (setting [3]); 0.01 nM in series [2] (setting [4]); 0.01 nM in series [2] (setting [5]); 0.01 nM in series [2] (setting [6]); 0.002 nM in series [2] (setting [7]); 0.002 nM in series [2] (setting [8]). The IC50 in series [2] (setting [9]) amounted to 0.7 nM; in series [2] (setting [10]) it was 0.1 nM; in series [2] (setting [11]), 0.3 nM; in series [2] (setting [12]) it was 0.38 nM; in series [2] (setting [13]), 0.34 nM; in series [2] (setting [14]), 0.38 nM. In series [2] (setting [15]), the concentration for half-maximal inhibition (IC50) was 0.41 nM. Further, the “potency compared with the (−) levorotatory atropisomer or the racemate” value in series [2] (endothelin antagonist, statement in words) is listed as “remarkably higher potency”.

The values are drawn from patent US20030040534A1, “Enantiomers of N-[[2'-[[(4,5-dimethyl-3-isoxazolyl)amino]sulfonyl]-4-(2-oxazolyl)[1,1'-biphenyl]-2-yl]methyl]-N,3,3-trimethylbutanamide” (priority 2001, published 2003).
